Results: article PMC3915329 (Journal of Ginseng Research, 2013)

biological target: T1, protein tyrosine phosphatase 1B (PTP1B) (Homo sapiens, UniProt P18031); assay: Inhibitory activity against PTP1B assay; assay type: biochemical
T1 sequence (P18031 1-435): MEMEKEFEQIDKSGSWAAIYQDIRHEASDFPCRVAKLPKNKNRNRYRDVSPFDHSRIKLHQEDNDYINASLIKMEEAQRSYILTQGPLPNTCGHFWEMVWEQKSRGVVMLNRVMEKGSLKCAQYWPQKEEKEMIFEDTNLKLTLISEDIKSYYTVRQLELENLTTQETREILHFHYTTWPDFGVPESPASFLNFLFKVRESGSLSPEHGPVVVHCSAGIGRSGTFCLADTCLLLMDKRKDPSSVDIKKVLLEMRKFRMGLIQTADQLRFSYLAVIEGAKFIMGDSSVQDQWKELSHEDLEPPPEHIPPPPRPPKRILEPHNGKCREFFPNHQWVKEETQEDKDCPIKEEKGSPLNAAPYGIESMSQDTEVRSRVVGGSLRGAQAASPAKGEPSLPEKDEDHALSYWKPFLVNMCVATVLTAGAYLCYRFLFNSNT

Row | IC50 | Compound
1 | > 100 µM | CC(C)=CCC[C@](C)(O[C@@H]1O[C@H](CO[C@@H]2O[C@H](CO)[C@@H](O)[C@H](O)[C@H]2O)[C@@H](O)[C@H](O)[C@H]1O)[C@H]1CC[C@]2(C)[C@@H]1[C@H](O)C[C@@H]1[C@@]3(C)CC[C@H](O[C@@H]4O[C@H](CO)[C@@H](O)[C@H](O)[C@H]4O[C@@H]4O[C@H](CO)[C@@H](O)[C@H](O)[C@H]4O)C(C)(C)[C@@H]3CC[C@]12C [Compound 5, ginsenoside-Rb1]
2 | > 100 µM | CC(C)=CCC[C@](C)(O[C@@H]1O[C@H](CO[C@@H]2O[C@@H](CO)[C@H](O)[C@H]2O)[C@@H](O)[C@H](O)[C@H]1O)[C@H]1CC[C@]2(C)[C@@H]1[C@H](O)C[C@@H]1[C@@]3(C)CC[C@H](O[C@@H]4O[C@H](CO)[C@@H](O)[C@H](O)[C@H]4O[C@@H]4O[C@H](CO)[C@@H](O)[C@H](O)[C@H]4O)C(C)(C)[C@@H]3CC[C@]12C [Compound 8, ginsenoside-Rc]
3 | > 100 µM | CC(C)=CCC[C@](C)(O[C@@H]1O[C@H](CO)[C@@H](O)[C@H](O)[C@H]1O)[C@H]1CC[C@]2(C)[C@@H]1[C@H](O)C[C@@H]1[C@@]3(C)CC[C@H](O[C@@H]4O[C@H](CO)[C@@H](O)[C@H](O)[C@H]4O[C@@H]4O[C@H](CO)[C@@H](O)[C@H](O)[C@H]4O)C(C)(C)[C@@H]3CC[C@]12C [Compound 9, ginsenoside-Rd]
4 | > 100 µM | CC1(C)CCC[C@](C)([C@H]2CC[C@]3(C)[C@@H]2[C@H](O)C[C@@H]2[C@@]4(C)CC[C@H](O)C(C)(C)[C@@H]4CC[C@]23C)O1 [Compound 18, panaxadiol]

Row | Compound | IC50
5 | CC(C)=CCC[C@](C)(O[C@@H]1O[C@H](CO)[C@@H](O)[C@H](O)[C@H]1O)[C@H]1CC[C@]2(C)[C@@H]1[C@H](O)C[C@@H]1[C@@]3(C)CC[C@H](O)C(C)(C)[C@@H]3[C@@H](O)C[C@]12C [Compound 14, ginsenoside-F1] | > 100 µM
